The values that follow come from patent publication US8865714B2, “Piperazine compound capable of inhibiting prostaglandin D synthase” (Taiho Pharmaceutical Co., Ltd., priority 2009, dated 2014).

Usually IC50 stands for the concentration at which inhibition is half-maximal. The inhibition is the percentage by which the read-out fell short of the control.

The test system of test [1] is C57BL/10-mdx (mdx) mice. As to the kind of experiment: Forelimb grip strength test in mice. Type of test: in vivo. The settings on record: 30 mg/kg orally once a day for 4 weeks, * = significance level below 0.05 vs control group. The procedure: 4-week-old male C57BL/10-mdx (mdx) mice were used as a disease group, and 4-week-old male C57BL/10Sn (wild) mice were used as a normal group in the test. A acclimation period was provided after the arrival of the mice. An initial value of each individual was measured at 5 weeks of age, and 10 mice were assigned to each group. From the following day, the test compound (30 mg/kg) was orally administered to the mice once a day consecutively for 4 weeks. The animals in the control group only received the vehicle orally. The forelimb grip strength was measured at 4 weeks after the start of the administration. A value obtained by dividing the average of 5 forelimb grip strength measurement values (kg) determined using a small animal grip strength measurement device (GPM-100M, Melquest) by the body weight (kg) was used as the evaluation index (reference literature: Muscle Nerve., 35, 43-48 (2007)).
9 or more cases were obtained from each group to determine whether expression of forelimb grip strength enhancing action occurred. First, a significant decrease in the value of the control group compared to that of the normal group was confirmed, and then the value of the control group was compared with the value of the compound-administered group. When the significance level was below 0.05, the action was considered to be present and indicated by symbols (#) and (*) in the table.

Test [2] has as its system eosinophil infiltration in guinea pigs with antigen-induced rhinitis. As to the kind of experiment: Eosinophil infiltration inhibiting action in guinea pigs with antigen-induced rhinitis. The settings on record: 30 mg/kg orally 3 times; washing 6 hours after induction; * = significance level below 0.05 vs control group. It is filed as in vivo. The procedure:
(§1) A physiological saline solution containing 1 mg/mL of ovalbumin was subcutaneously injected into the back of 5-week-old male Std:Hartley guinea pigs in an amount of 1 mL/body for active sensitization (initial sensitization). One week and two weeks after initial sensitization, 20 μL of a physiological saline solution containing 10 mg/mL of ovalbumin was instilled into each nasal cavity using a micropipette (sensitization by nasal administration). Three weeks after initial sensitization, 20 μL of a physiological saline solution containing 10 mg/mL of ovalbumin was instilled into each nasal cavity using a micropipette to induce a rhinitis reaction.
The test compound (30 mg/kg) was orally administered 3 times in total (2 times at sensitization by nasal administrations and 1 time at the induction of a rhinitis reaction), 1 hour before sensitization or induction. The animals in the control group only received the medium orally.
6 hours after the induction of a rhinitis reaction, the nasal cavities were washed under pentobarbital sodium anesthesia. A nasal cavity washing liquid (phosphate buffered saline containing 3 mM of EDTA and 10 μM of indomethacin) was flushed using a Peristaltic Pump (Gilson, Inc.) in the direction from the trachea to the upper respiratory tract at the flow rate of 1 mL/min, and the liquid flowing out from the nasal cavities was collected for 3 minutes. The collected liquid was filtered through a cell strainer (40 μm), and centrifuged at 4° C., 300×g, for 10 minutes. Subsequently, the supernatant was removed by suction. 250 μL of nasal cavity washing liquid was added to the cell pellet to form a suspension. The total number of cells (×10^5 cells) in the cell suspension was determined using an automated blood cell counter (F-820, Sysmex Corporation).
A cell smear was prepared using a centrifugal device to collect cells (Cytospin-3, Shandon). After the cells were stained using a cell stain solution, the number of monocytes, the number of eosinophils, and the number of neutrophils were counted to obtain 300 cells in total by observation under a microscope (200-times magnification). The component ratio of each cell was calculated, and the number of eosinophils in the nasal cavity washing liquid was determined by the following formula. Number of eosinophils([…])=(Eosinophil count÷total count(300))×total number of cells
The rate of decrease in the number of eosinophils in the nasal cavity washing liquid was regarded as the eosinophil infiltration inhibition rate, and determined by the following formula. […] Inhibition rate(%)={(Number of eosinophils in the control group−number of eosinophils in the compound-administered group)÷(number of eosinophils in the control group−number of eosinophils in the normal group)}×100
16 cases were obtained from each group, and the number of eosinophils in the nasal cavity washing fluid was compared between the control group and each compound-administered group. Note that when the significance level was below 0.05, the eosinophil infiltration inhibiting action was considered to be present and indicated by a symbol (*) in the table.

The subject of test [3] is PGD2 production in the nasal cavities of guinea pigs with antigen-induced rhinitis. As to the kind of experiment: PGD2 production inhibiting action in the nasal cavities of guinea pigs with antigen-induced rhinitis. It is filed as in vivo. The settings on record: for Rate of decrease in PGD2 concentration in the nasal cavity washing fluid (%): 30 mg/kg orally 1 hour before induction, washing 30 minutes after induction, * = significance level below 0.05 vs control group. The procedure:
as §1
The test compound (30 mg/kg) was orally administered 1 hour before induction of a rhinitis reaction. The animals in the control group only received the medium orally.
30 minutes after the induction of a rhinitis reaction, the nasal cavities were washed under pentobarbital sodium anesthesia. A nasal cavity washing liquid (phosphate buffered saline containing 3 mM of EDTA and 10 μM of indomethacin) was flushed using a Peristaltic Pump (Gilson, Inc.) in the direction from the trachea to the upper respiratory tract at the flow rate of 1 mL/min, and the liquid flowing out from the nasal cavities was collected for 1 minute. The collected liquid was centrifuged to separate the supernatant as the nasal cavity washing fluid. The concentration of PGD2 in the nasal cavity washing fluid was determined using an EIA kit (Prostaglandin D2-MOX EIA kit, Cayman Chemical).
The rate of decrease in PGD2 in the nasal cavity washing fluid was calculated by the following formula. […] Rate of decrease in PGD2 in the nasal cavity washing fluid(%)={(PGD2 concentration in the control group−PGD2 concentration in the compound-administered group)÷(PGD2 concentration in the control group−PGD2 concentration in the normal group)}×100 […]

The target in test [4] is human H-PGDS (Homo sapiens (Human), UniProt O60760). The test is described as follows: Hematopoietic prostaglandin D synthase (H-PGDS) inhibiting action. It is filed as biochemical. The settings on record: human H-PGDS, [14C] prostaglandin H2 10 μM; for H-PGDS inhibition rate (%) / inhibition at 0.1 µM: compound at 0.1 μM, relative to the control group; for IC50: read-out: IC50; for inhibition at 0.1 µM: read-out: H-PGDS inhibition rate (%). The procedure:
More specifically, the reaction mixture (49 μL) containing 100 mM Tris-HCl (pH 8.0), 1 mM reduced glutathione, 0.1 mg/mL γ-globulin, and human H-PGDS (q.s.), and a compound (final concentration: 0.01-100 μM) was preincubated at 25° C. for 5 minutes. Note that a DMSO solution (final concentration: 1%) was added to the solvent control group. Subsequently, 1 μL of [14C] prostaglandin H2 (final concentration: 10 μM) was added to start the reaction. One minute after the start of the reaction, 250 μL of a reaction stopper solution (diethylether/methanol/1 M citric acid (30/4/1) at a temperature of −20° C. was added to stop the reaction. After the reaction was stopped, 50 μL of the upper layer portion (organic solvent phase) was applied to a TLC plate and developed at −20° C. for 45 minutes (developing solvent: diethylether/methanol/acetic acid (90/2/1)). After drying the TLC plate, the TLC plate was exposed to an imaging plate for 1 to 24 hours, and the radioactivity corresponding to prostaglandin D2 (PGD2) was analyzed using an image analyzer (produced by Fujifilm Corporation).

Sequence of human H-PGDS (O60760 whole entry): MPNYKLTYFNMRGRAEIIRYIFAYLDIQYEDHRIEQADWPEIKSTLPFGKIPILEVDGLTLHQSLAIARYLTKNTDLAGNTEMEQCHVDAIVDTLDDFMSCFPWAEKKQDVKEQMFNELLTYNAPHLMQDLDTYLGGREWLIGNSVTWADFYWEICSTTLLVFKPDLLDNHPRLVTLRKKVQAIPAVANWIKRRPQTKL

Regarding `O=C(Nc1nc2ccc(Br)cc2s1)N1CCN(C(=O)c2cccc(F)c2)CC1` [Reference Example 13, 4-(3-fluorobenzoyl)-piperazine-1-carboxylic acid-(6-bromobenzothiazol-2-yl)amide], in test [1], the “Forelimb grip strength measurement value/body weight (kg/kg)” value was determined as 4.37 ± 0.15 kg/kg. Besides, the “Eosinophil infiltration inhibition rate (%)” value in test [2] is on record as 34.2%.
For `O=C(Nc1nc2ccc(Cl)cc2s1)N1CCN(C(=O)c2cccc(F)c2)CC1` [Reference Example 17, 4-(3-fluorobenzoyl)piperazine-1-carboxylic acid-(6-chlorobenzothiazol-2-yl)amide] the same measures were 4.48 ± 0.15 kg/kg and 16.6%.
In the same order, the values of `COc1ccc2nc(NC(=O)N3CCN(C(=O)c4cccc(F)c4)CC3)sc2c1` [Reference Example 16, 4-(3-fluorobenzoyl)piperazine-1-carboxylic acid-(6-methoxybenzothiazol-2-yl)amide] are 4.29 ± 0.24 kg/kg and −108.0* %.
In the case of “4-((1-methylpyrrol-2-yl)-carbonyl)-N-(4-(4-morpholin-1-yl-carbonylpiperidin-1-yl)-phenyl)-1-piperazinecarboxamide [Example 3]”, the “Rate of decrease in PGD2 concentration in the nasal cavity washing fluid (%)” value in test [3] was 77.5* %. In addition, the “Forelimb grip strength measurement value/body weight (kg/kg)” value in test [1] is listed as 4.80 ± 0.09* kg/kg. Further, the “Eosinophil infiltration inhibition rate (%)” value in test [2] is given as 49.9* %. Also, in test [4], the “H-PGDS inhibition rate (%)” value was determined as 54.2% and the IC50 stood at 76 nM.
`Cc1ccc2nc(NC(=O)N3CCN(C(=O)c4cccc(F)c4)CC3)sc2c1` [Reference Example 15, 4-(3-fluorobenzoyl)piperazine-1-carboxylic acid-(6-methylbenzothiazol-2-yl)amide]: the “Forelimb grip strength measurement value/body weight (kg/kg)” value in test [1] was 4.20 ± 0.20 kg/kg. In addition, in test [2], the “Eosinophil infiltration inhibition rate (%)” value is on record as −133.3* %.
On to `CON(C)C(=O)c1[nH]c(C)c(-c2nc3ccc(C(=O)c4ccccc4)cc3[nH]2)c1C` [Reference Example 19, N-methoxy-N-methyl-4-(5-benzoylbenzimidazol-2-yl)-3,5-dimethylpyrrol-2-carboxamide], for which the “Rate of decrease in PGD2 concentration in the nasal cavity washing fluid (%)” value in test [3] is reported as 77.0* %. Besides, the “PGD2 production inhibiting action (in words)” value in test [3] (30 mg/kg orally, summary of Table 2) is “have the action”.
In the case of `O=C(Nc1ccc(N2CCC(C(=O)N3CCOCC3)CC2)cc1)N1CCN(C(=O)c2ccccc2)CC1` [Reference Example 11, 4-(benzoyl)-N-(4-(4-morpholin-1-yl-carbonylpiperidin-1-yl)-phenyl)-1-piperazinecarboxamide], in test [4], the “H-PGDS inhibition rate (%)” value was 15.8% and the IC50 was determined as 437 nM.
Consider `Cc1nc(C)n(CCC2CCN(c3ccc(NC(=O)N4CCN(C(=O)c5cccn5C)CC4)cc3)CC2)n1` [Example 9, 4-((1-methylpyrrol-2-yl)-carbonyl)-N-(4-(4-(2-(3,5-dimethyl-1,2,4-triazol-1-yl)-ethyl)piperidin-1-yl)-phenyl)-1-piperazinecarboxamide], for which the inhibition at 0.1 µM in test [4] is 54.8%.
In the case of `Cn1cccc1C(=O)N1CCN(C(=O)Nc2ccc(N3CCC(C(=O)NCc4cccnc4)CC3)cc2)CC1` [Example 17, 4-((1-methylpyrrol-2-yl)-carbonyl)-N-(4-(4-(pyridin-3-ylmethylcarbamoyl)piperidin-1-yl)-phenyl)-1-piperazinecarboxamide], the inhibition at 0.1 µM in test [4] turned out to be 61.7%.
As for `Cc1cc2nc(NC(=O)N3CCN(C(=O)c4cccc(F)c4)CC3)sc2cc1C` [Reference Example 14, 4-(3-fluorobenzoyl)-piperazine-1-carboxylic acid-(5,6-dimethylbenzothiazol-2-yl)amide], the “Forelimb grip strength measurement value/body weight (kg/kg)” value in test [1] amounted to 4.26 ± 0.22 kg/kg. Further, in test [2], the “Eosinophil infiltration inhibition rate (%)” value is recorded as −25.1%.
On to “4-((1-methylpyrrol-2-yl)-carbonyl)-N-(4-(4-(3-(1,2,4-triazol-1-yl-propyl)piperidin-1-yl)-phenyl)-1-piperazinecarboxamide [Example 11]”, for which, in test [4], the “H-PGDS inhibition rate (%)” value is 71.3% and the IC50 is 46 nM.
Consider `Cn1cccc1C(=O)N1CCN(C(=O)Nc2ccc(N3CCC(CCn4cncn4)C3)cc2)CC1` (centres unmarked) [Example 5, 4-((1-methylpyrrol-2-yl)-carbonyl)-N-(4-(3-(2-(1,2,4-triazol-1-yl)-ethyl)pyrrolidin-1-yl)-phenyl)-1-piperazinecarboxamide], for which the inhibition at 0.1 µM in test [4] worked out at 55.5%.
For the molecule “4-((((1-methylpyrrol-2-yl)-carbonyl)-1-piperazinyl)carbonyl)amino-4-phenylpiperidine-4-carboxylic acid [Example 2]”, in test [4], the “H-PGDS inhibition rate (%)” value was 53.7% and the IC50 worked out at 86 nM.
